According to ChEMBL document CHEMBL2396560, “Discovery of (R)-4-cyclopropyl-7,8-difluoro-5-(4-(trifluoromethyl)phenylsulfonyl)-4,5-dihydro-1H-pyrazolo[4,3-c]quinoline (ELND006) and (R)-4-cyclopropyl-8-fluoro-5-(6-(trifluoromethyl)pyridin-3-ylsulfonyl)-4,5-dihydro-2H-pyrazolo[4,3-c]quinoline (ELND007): metabolically stable γ-secretase …” (J Med Chem, 2013):

Columns and labels:
[1] = system: Liver microsomes; assay: Glucuronidation metabolism in human liver microsomes assessed as compound remaining; format: ADME, Microsome
[2] = system: Liver microsomes; assay: Glucuronidation metabolism in rat liver microsomes assessed as compound remaining; format: ADME, Microsome
[3] = system: Liver; assay: Glucuronidation metabolism in dog liver microsomes assessed as compound remaining; format: ADME, Canis lupus familiaris, Microsome
[4] = system: Liver; assay: Glucuronidation metabolism in mouse liver microsomes assessed as compound remaining; format: ADME, Microsome
[5] = system: Liver microsomes; assay: Oxidative metabolism in human liver microsomes assessed as compound remaining; format: ADME, Microsome
[6] = system: Liver microsomes; assay: Oxidative metabolism in rat liver microsomes assessed as compound remaining; format: ADME, Microsome
[7] = system: Liver; assay: Oxidative metabolism in dog liver microsomes assessed as compound remaining; format: ADME, Canis lupus familiaris, Microsome
[8] = system: Liver; assay: Oxidative metabolism in mouse liver microsomes assessed as compound remaining; format: ADME, Microsome
[9] = system: CHO; assay: Selctivity ratio of ED50 for gamma-secretase in CHO cells assessed expressing NotchdeltaE assessed as inhibition of notch cleavage to ED50 for gamma-secretase in CHO cells assessed expressing APPSw assessed as inhibition of amyloid beta(1 to x) secretion; format: cell-based; details: Cricetulus griseus
[10] = system: CHO; assay: Inhibition of gamma-secretase in CHO cells assessed expressing NotchdeltaE assessed as inhibition of notch cleavage after overnight incubation by luciferase reporter gene assay; format: cell-based; details: Cricetulus griseus
[11] = system: CHO; assay: Inhibition of gamma-secretase in CHO cells assessed expressing APPSw assessed as inhibition of amyloid beta(1 to x) secretion after overnight incubation by ELISA; format: cell-based; details: Cricetulus griseus
[12] = target: Gamma-secretase (Homo sapiens) (UniProt Q96BI3+Q9NZ42+Q8WW43+P49768+Q92542+P49810); assay: Selctivity ratio of IC50 for partially purified human gamma-secretase-mediated cleavage of notch fusion protein to IC50 for partially purified human gamma-secretase-mediated cleavage of MBP-APPc125Sw fusion protein; format: protein-complex assay
[13] = target: Gamma-secretase; assay: Inhibition of partially purified human gamma-secretase-mediated cleavage of notch fusion protein measured after overnight incubation by ELISA; format: protein-complex assay
[14] = target: Gamma-secretase; assay: Inhibition of partially purified human gamma-secretase-mediated cleavage of MBP-APPc125Sw fusion protein measured after overnight incubation by ELISA; format: protein-complex assay
[15] = system: Mus musculus; assay: Reduction in amyloid beta (x to 40) in FVB mouse cortex at 10 mg/kg, po administered as single dose measured at 3 hrs; format: functional; parameters: scale not given: the % may be the effect or the level left
[16] = system: Mus musculus; assay: Reduction in amyloid beta (x to 40) in FVB mouse cortex at 30 mg/kg, po administered as single dose measured at 3 hrs; format: functional; parameters: scale not given: the % may be the effect or the level left
[17] = system: Mus musculus; assay: Reduction in amyloid beta (x to 40) in FVB mouse cortex at 3 mg/kg, po administered as single dose measured at 3 hrs; format: functional; parameters: scale not given: the % may be the effect or the level left

Row | Compound | Stability [1] [%] | Stability [2] [%] | Stability [3] [%] | Stability [4] [%] | Stability [5] [%] | Stability [6] [%] | Stability [7] [%] | Stability [8] [%] | Ratio ED50 [9] | ED50 [10] [nM] | ED50 [11] [nM] | Ratio IC50 [12] | IC50 [13] [nM] | IC50 [14] [nM] | Activity [15] [%] | Activity [16] [%] | Activity [17] [%]
1 | O=S(=O)(c1ccc(F)cc1)N1c2cc(F)c(F)cc2-c2n[nH]cc2[C@H]1C1CC1 | 75 | 91 | 89 | 93 | 24 | 51 | 47 | 52 | 65 | 85 | 1.3 | 29 | 9.6 | 0.33 |  |  | 
2 | O=S(=O)(c1ccc(Cl)cc1)N1Cc2c[nH]nc2-c2ccc(F)cc21 | 3 | 99 | 83 | 77 | 1 | 0 | 0 | 22 | 69 | 11000 | 160 | 5.8 | 220 | 38 |  |  | 
3 | C[C@@H]1c2c[nH]nc2-c2cc(F)ccc2N1S(=O)(=O)c1ccc(Cl)cc1 |  | 92 | 97 | 91 | 1 | 2 | 40 | 7 | 63 | 170 | 2.7 | 23 | 14 |  |  |  | 
4 | O=S(=O)(c1ccc(C(F)(F)F)cc1)N1c2ccc(F)cc2-c2n[nH]cc2[C@H]1C1CC1 | 82 | 91 | 88 | 97 | 84 | 59 | 80 | 72 | 67 | 53 | 0.79 | 12 | 1.7 | 0.14 |  |  | 
5 | O=S(=O)(N[C@H](CO)C(C(F)(F)F)C(F)(F)F)c1ccc(Cl)s1 [BEGACESTAT] | 75 | 0 | 0 | 36 | 78 | 54 | 78 | 89 | 45 | 350 | 7.8 | 6.9 | 11 | 1.6 | 20 | 33 | 18
6 | O=S(=O)(c1ccc(Cl)cc1)N1Cc2c[nH]nc2-c2ccccc21 | 11 | 93 | 89 | 81 | 0 | 0 | 0 | 3 | 94 | 9400 | 100 |  | 250 | 327 |  |  | 
7 | O=S(=O)(c1ccc(Cl)cc1)N1Cc2c[nH]nc2-c2cc(F)ccc21 | 69 | 91 | 86 | 80 | 0 | 0 | 0 | 5 | 75 | 7400 | 99 | 7.3 | 160 | 22 |  |  | 
8 | O=S(=O)(c1ccc(Cl)cc1)N1[C@H]2CCC[C@@H]1c1cn[nH]c1C2 | 0 | 0 | 100 | 4 | 50 | 5 | 2 | 15 |  | 690 | 5.2 |  |  |  |  |  | 
9 | C[C@@H]1c2c[nH]nc2-c2cc(F)c(F)cc2N1S(=O)(=O)c1ccc(C(F)(F)F)cc1 | 80 | 86 | 83 | 93 | 28 | 36 | 54 | 20 | 68 | 890 | 13 | 20 | 42 | 2.1 |  |  | 
10 | CC(C)[C@@H]1c2c[nH]nc2-c2cc(F)c(F)cc2N1S(=O)(=O)c1ccc(C(F)(F)F)cc1 | 76 | 93 | 87 | 95 | 22 | 12 | 17 | 15 | 73 | 410 | 5.6 | 12 | 17 | 1.4 |  |  | 
11 | CC[C@H]1Cc2n[nH]cc2[C@@H](CC)N1S(=O)(=O)c1ccc(Cl)cc1 [ENT A] | 1 | 1 | 38 | 11 | 1 | 1 | 0 | 1 | 95 | 71 | 0.75 | 13 | 4.7 | 0.37 |  |  | 
12 | C[C@@H]1c2c[nH]nc2-c2cc(F)ccc2N1S(=O)(=O)c1ccc(F)cc1 | 70 | 82 | 84 | 84 | 17 | 21 | 49 | 22 | 54 | 410 | 7.8 | 33 | 43 | 1.3 |  |  | 
13 | O=S(=O)(c1ccc(C(F)(F)F)cc1)N1c2ccccc2-c2n[nH]cc2[C@H]1C1CC1 | 99 | 87 | 99 | 98 | 36 | 40 | 46 | 51 | 63 | 26 | 0.41 | 15 | 2.7 | 0.18 |  |  | 
